Data taken from patent publication US20110160184A1, “Dibenzothiazepine Derivatives and Use Thereof” (ASTRAZENECA AB, priority 2008, published 2011).
Read-outs that look alike come from different tables or passages of the source.

Columns and labels:
[1] = biological target: T1, human norepinephrine transporter (Homo sapiens, UniProt P23975); assay: Norepinephrine uptake (fluorescent substrate, HEK293F cells); assay type: cell-based
T1 construct: expressed in transfected cells
Method: An assay for measuring norepinephrine uptake can be carried out as described below. Briefly, test compounds can be evaluated in an 11-point IC50 curve for their ability to inhibit uptake of a proprietary fluorescent substrate (dye) from Molecular Devices that mimics biogenic amine neurotransmitters. A stable population of HEK293F cells transfected with the human norepinephrine transporter (cultured in Freestyle 293 expression medium with […] hygromycin B) can be cryopreserved, then plated and used on the day of the assay. Cells can be at 60 K/well; dye can be 7% (final) of the vendor-recommended reconstitution volume (100%). Compounds can be diluted 1:20 in buffer and incubated with the cells for 30 minutes prior to addition of the dye. In this fluorescence intensity assay, plates can be read after a 20 minute dye incubation to determine percent effect with respect to total signal (0.5% DMSO, final) and background signal (10 μM desipramine, final). The IC50, half of the control response, can be converted to Ki using the using the standard Cheng-Prusoff equation.

dopamine D2s receptor [2] = biological target: T2, dopamine D2s receptor (Homo sapiens, UniProt P14416); assay: D2 receptor in vitro functional GTPγS assay (block of dopamine-stimulated [35S]-GTPγS binding); assay type: biochemical
T2 construct: expressed in transfected cells; membranes used
T2 sequence (P14416 1-414 isoform P14416-2): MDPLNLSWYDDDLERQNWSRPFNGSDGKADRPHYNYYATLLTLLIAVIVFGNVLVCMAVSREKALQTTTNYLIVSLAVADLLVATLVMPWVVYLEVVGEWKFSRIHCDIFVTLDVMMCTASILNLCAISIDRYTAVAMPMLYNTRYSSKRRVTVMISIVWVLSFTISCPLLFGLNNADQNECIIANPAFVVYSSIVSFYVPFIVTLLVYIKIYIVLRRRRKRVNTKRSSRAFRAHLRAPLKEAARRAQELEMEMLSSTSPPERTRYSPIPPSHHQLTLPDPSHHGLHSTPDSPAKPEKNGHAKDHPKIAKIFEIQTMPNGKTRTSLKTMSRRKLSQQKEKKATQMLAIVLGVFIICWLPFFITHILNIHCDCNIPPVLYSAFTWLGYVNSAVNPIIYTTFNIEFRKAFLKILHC
Method: (§1) In vitro experimental assays can generally be carried out as described herein. Briefly, CHO-K1 cells stably transfected with the dopamine D2s receptor can be used in the experiments and maintained in Ham's F12 culture medium supplemented with 2 mM L-glutamine, 10% FBS, and 500 μg/ml Hygromycin.
GTPgS assay can be performed substantially as described by Lazareno, Methods in Molecular Biology, 1999, 106, 231-245. Antagonist activity of compounds can be determined by the ability of test compounds to block dopamine-stimulated [^35S]-GTPγS binding to cell membranes from D2s stably-transfected CHO cells.

H1 receptor = H1 receptor (Homo sapiens, UniProt P35367); assay: H1 receptor binding; conditions: read-out: H1 Hu Bind Mean Ki
Chain of H1 receptor (P35367 whole entry): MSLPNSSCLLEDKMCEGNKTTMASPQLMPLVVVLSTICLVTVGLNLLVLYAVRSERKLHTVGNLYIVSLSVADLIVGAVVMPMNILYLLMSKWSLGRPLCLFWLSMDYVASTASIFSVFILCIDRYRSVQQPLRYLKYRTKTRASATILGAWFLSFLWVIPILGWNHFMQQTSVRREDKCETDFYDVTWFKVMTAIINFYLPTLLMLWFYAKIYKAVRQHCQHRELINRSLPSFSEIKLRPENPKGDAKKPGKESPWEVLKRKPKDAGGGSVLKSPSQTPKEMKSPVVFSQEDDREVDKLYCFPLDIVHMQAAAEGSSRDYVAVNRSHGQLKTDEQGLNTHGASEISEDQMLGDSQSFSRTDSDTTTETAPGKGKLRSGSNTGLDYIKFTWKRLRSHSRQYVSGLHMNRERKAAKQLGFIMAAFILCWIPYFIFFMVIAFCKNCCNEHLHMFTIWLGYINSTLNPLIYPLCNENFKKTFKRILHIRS
From the text: H1 Receptor Binding The H1 receptor binding method can be carried out in accordance with De Backer et al., Biochem. Biophys. Res. Commun, 1993, 197(3), 1601.

dopamine D2s receptor [3] = biological target: T2, dopamine D2s receptor; assay: D2 receptor binding assay (3H-raclopride displacement, membranes from D2s-transfected CHO cells)
Method: as §1
The ability of test compounds to displace ^3H-raclopride at the D2s receptor can be determined on membranes from D2s-transfected CHO cells (Bmax 13 pmol/mg protein). An assay can use a standard 96-well glass-fiber filter plate to retain radioligand bound by the receptor. Retained ^3H can be determined in a TopCount scintillation plate counter following the addition of a liquid scintillant to each well. Compounds can be evaluated for their potency using competition curve analysis, resulting in calculated Ki values.

[4] = tested on: Conditioned Avoidance Responding; assay: Conditioned avoidance responding (CAR) assay; assay type: in vivo, Male Long-Evans rats; conditions: rat
Method: Male Long-Evans rats can be trained to traverse to the opposite side of a standard shuttle cage following presentation of an auditory and visual stimulus to avoid delivery of electric shock to the floor of the cage. Daily sessions can consist of up to 80 trials. If a shock is delivered, animals have the opportunity to escape the shock by traversing to the opposite side of the cage. Drug can be administered (via s.c. or p.o. route) 60 minutes prior to testing and the percentage of trials in which shock is avoided and escaped can be recorded.

[5] = tested on: D-Amphetamine-induced Hyperlocomotor Activity; assay: D-Amphetamine-induced hyperlocomotor activity (LMA) in habituated rat model; assay type: in vivo, male Long Evans rats; conditions: D-amphetamine 1 mg/kg s.c.
Method: Studies in vivo can be used to determine the antipsychotic effect and are generally carried out as follows. Briefly, D-Amphetamine-induced Hyperlocomotor Activity (LMA) in a Habituated Rat Model can be assessed in male Long Evans rats using a paradigm that includes a habituation phase followed by administration of 1 mg/kg D-amphetamine. Animals can be allowed to acclimatize to the testing room for 1 hour before being weighed and placed into activity chambers. Thirty minutes after LMA measurement is begun, animals can be briefly removed, dosed via the sub-cutaneous route (s.c.) with vehicle or test drug at different doses and returned to the chambers. After a further 30 minutes, animals can again be removed and dosed with vehicle or D-amphetamine at 1 mg/kg (s.c.). After returning the animals to the activity chambers, LMA can be assessed for a further 60 minutes. Haloperidol (0.1 mg/kg dissolved in H2O) can be administered 15 minutes prior to D-amphetamine via the s.c. route. Statistical analysis can be made of total distance traveled after D-amphetamine administration using ANOVA and Tukey's post hoc analysis where appropriate. All values can be expressed as Mean and SD.

[6] = HEK cells, fluorescence intensity, read-out: hNET uptake HEK FLInt CR Mean Ki
[7] = antagonist mode, read-out: D2 Ant GTPγS IC50
[8] = w/NaCl, read-out: D2 binding w/NaCl Ki

T1 sequence (P23975 whole entry): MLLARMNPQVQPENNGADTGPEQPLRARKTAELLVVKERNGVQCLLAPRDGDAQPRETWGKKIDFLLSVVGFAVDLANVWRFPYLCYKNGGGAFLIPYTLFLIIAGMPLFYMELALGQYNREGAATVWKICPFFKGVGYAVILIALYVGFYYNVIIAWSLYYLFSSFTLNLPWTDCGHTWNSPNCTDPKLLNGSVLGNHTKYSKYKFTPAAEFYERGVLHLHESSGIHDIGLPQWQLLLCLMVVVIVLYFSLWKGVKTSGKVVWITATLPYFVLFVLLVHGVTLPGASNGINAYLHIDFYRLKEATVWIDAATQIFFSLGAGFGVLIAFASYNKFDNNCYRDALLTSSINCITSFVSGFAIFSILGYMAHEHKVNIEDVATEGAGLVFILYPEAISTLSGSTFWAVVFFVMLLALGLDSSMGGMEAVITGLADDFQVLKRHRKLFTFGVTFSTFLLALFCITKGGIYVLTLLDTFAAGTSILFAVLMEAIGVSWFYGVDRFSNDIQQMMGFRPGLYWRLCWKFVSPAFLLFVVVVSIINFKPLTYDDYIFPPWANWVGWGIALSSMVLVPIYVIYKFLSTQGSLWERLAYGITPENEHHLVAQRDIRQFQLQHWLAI

Structure (SMILES) | Ki [1, 6] | IC50 (dopamine D2s receptor [2]; [7]) | Ki (H1 receptor) | Ki (dopamine D2s receptor [3]; [8]) | Ki ([1]; HEK293F cells with human NET, Cheng-Prusoff from IC50, one average result, read-out: NET inhibition Ki) | IC50 (dopamine D2s receptor [2]; antagonist, dopamine-stimulated [35S]-GTPγS binding, D2s CHO membranes, one average result, read-out: GTPγS IC50) | Ki (dopamine D2s receptor [3]; 3H-raclopride, D2s-transfected CHO cell membranes, one average result, read-out: D2 binding Ki) | activity in conditioned avoidance responding ([4]; 30 mg/kg (sc)) | activity in conditioned avoidance responding ([4]; 60 mg/kg (sc)) | activity in D-amphetamine-induced LMA ([5]; 30 mg/kg (sc)) | activity in D-amphetamine-induced LMA ([5]; 60 mg/kg (sc))
CN1CCN(C2=Nc3ccccc3Sc3ccc(F)cc32)CC1 [2-Fluoro-11-(4-methyl-piperazin-1-yl)-dibenzo[b,f][1,4]thiazepine] | 59 nM | 170 nM | 1.82 nM | 1.1 nM |  |  |  |  |  |  | 
CN1CCN(C2=Nc3ccccc3Sc3ccc(Cl)cc32)CC1 [2-Chloro-11-(4-methyl-piperazin-1-yl)-dibenzo[b,f][1,4]thiazepine] |  | 8.4 nM |  | 0.49 nM |  |  |  |  |  |  | 
c1ccc2c(c1)N=C(N1CCNCC1)c1ccccc1S2 [11-Piperazin-1-yl-dibenzo[b,f][1,4]thiazepine] | 24 nM | 800 nM | 3.33 nM | 37 nM |  |  |  |  |  |  | 

The next lines start with results.

Ki [1, 6] | IC50 (dopamine D2s receptor [2]; [7]) | Ki (H1 receptor) | Ki (dopamine D2s receptor [3]; [8]) | Ki ([1]; HEK293F cells with human NET, Cheng-Prusoff from IC50, one average result, read-out: NET inhibition Ki) | IC50 (dopamine D2s receptor [2]; antagonist, dopamine-stimulated [35S]-GTPγS binding, D2s CHO membranes, one average result, read-out: GTPγS IC50) | Ki (dopamine D2s receptor [3]; 3H-raclopride, D2s-transfected CHO cell membranes, one average result, read-out: D2 binding Ki) | Structure (SMILES) | activity in conditioned avoidance responding ([4]; 30 mg/kg (sc)) | activity in conditioned avoidance responding ([4]; 60 mg/kg (sc)) | activity in D-amphetamine-induced LMA ([5]; 30 mg/kg (sc)) | activity in D-amphetamine-induced LMA ([5]; 60 mg/kg (sc))
41 nM | 35 nM | 3.87 nM | 0.7 nM |  |  |  | Clc1ccc2c(c1)C(N1CCNCC1)=Nc1ccccc1S2 [2-Chloro-11-piperazin-1-yl-dibenzo[b,f][1,4]thiazepine] |  |  |  | 
9.6 nM | 400 nM |  | 11 nM | ~10 nM | ~404 nM | ~11 nM | Fc1ccc2c(c1)C(N1CCNCC1)=Nc1ccccc1S2 [Example 1, 2-fluoro-11-(piperazin-1-yl)dibenzo[b,f][1,4]thiazepine] | showed activity | showed activity | showed activity | showed activity
